The source made the active and inactive calls. No cut-off for these calls is given here.
Legend:
[1] = molecular target: Voltage-gated inwardly rectifying potassium channel KCNH2 (Homo sapiens, UniProt Q12809); test: Inhibition of hERG
Mus musculus [2] = test: Anti-inflammatory activity against C57BL6/N mouse assessed as EC50 required for reduction in LPS-induced PGD2 level in plasma administered orally with compound and 1 hr later treated with LPS and measured after 30 mins by LC-MS/MS analysis; format: functional, organism-based; settings: C57BL/6N
[3] = Free Cmax in mdx mouse administered orally 10 mins prior to unilateral eccentric contraction and QD for 43 days thereafter; format: ADME; settings: in vivo, po, 1032 h, time 43 day
[4] = Toxicity in Wistar Han rat assessed as animal death at 100 mg/kg/day, po administered QD for 7 days; format: organism-based; settings: in vivo, 168 h, time 7 day
[5] = Cmax in eccentric contraction-induced muscle injury C57BL/6N mouse model administered orally for 10 mins prior to unilateral eccentric contraction and QD for 16 days thereafter; format: ADME; parameters: time 16 day, route po; settings: in vivo, po
[6] = molecular target: Histamine H1 receptor (Homo sapiens) (UniProt P35367); settings: dose <= 10000.0 nM
Description: Inhibition of histamine H1 receptor (unknown origin) upto 10000 nM

[7] = molecular target: Substance-P receptor (Homo sapiens) (UniProt P25103); settings: dose <= 10000.0 nM
Description: Inhibition of tachykinin NK1 receptor (unknown origin) upto 10000 nM

[8] = molecular target: Beta-2 adrenergic receptor (Homo sapiens) (UniProt P07550); settings: dose <= 10000.0 nM
Description: Inhibition of beta2 adrenergic receptor (unknown origin) upto 10000 nM

[9] = Toxicity in dog assessed as diffuse degenration/regeneration and multifocal erosion/ulcreation in small intestine and oesophagus at 75 mg/kg/day, po QD for 4 days by microscopic analysis; format: organism-based, Canis lupus familiaris; settings: in vivo, 96 h, time 4 day
[10] = Terminal half life in rat at 0.4 mg/kg, iv; format: ADME, organism-based; settings: in vivo, read-out: beta t1/2 (converted)
[11] = molecular target: Phosphatidylinositol 4,5-bisphosphate 3-kinase catalytic subunit gamma isoform (Homo sapiens) (UniProt P48736); settings: dose <= 10000.0 nM
Description: Inhibition of PI3K-gamma (unknown origin) upto 10000 nM

[12] = Toxicity in dog assessed as body weight loss at 75 mg/kg/day, po QD for 4 days; format: organism-based, Canis lupus familiaris; settings: in vivo, 96 h, time 4 day
[13] = molecular target: Mas-related G-protein coupled receptor member X2 (Homo sapiens) (UniProt Q96LB1); settings: dose <= 10000.0 nM
Description: Inhibition of MRGPRX2 receptor (unknown origin) upto 10000 nM

[14] = Toxicity in Wistar Han rat assessed as necrosis and inflammatory cell infiltrates in heart at 100 mg/kg/day, po administered QD for 7 days by microscopic analysis; format: organism-based; settings: in vivo, 168 h, time 7 day
[15] = molecular target: GABA-A receptor; anion channel (Homo sapiens) (UniProt P14867+P47870+P18507+P28472+P48169+Q99928+Q9UN88+P34903+O00591+O14764+Q8N1C3+P18505+P78334+P47869+P31644+Q16445); settings: dose <= 10000.0 nM
Description: Inhibition of GABAA receptor (unknown origin) upto 10000 nM

[16] = Toxicity in dog assessed as degeneration of zona glomerulosa in adrenal gland at 75 mg/kg/day, po QD for 4 days by microscopic analysis; format: organism-based, Canis lupus familiaris; settings: in vivo, 96 h, time 4 day
[17] = Ratio of drug level in brain to blood in mouse at 1 mg/kg, iv; format: ADME, organism-based; settings: read-out: BBR
[18] = molecular target: 5-hydroxytryptamine receptor 2C (Homo sapiens) (UniProt P28335); settings: dose <= 10000.0 nM
Description: Inhibition of 5-HT2C receptor (unknown origin) upto 10000 nM

[19] = Ratio of drug level in muscle to plasma in C57BL/6N mouse administered orally for 10 mins prior to unilateral eccentric contraction and QD for 43 days thereafter; format: toxicity, cell-free, Muscle tissue/plasma; settings: route po, time 43 day
[20] = Toxicity in dog assessed as clinical pathological changes by measuring increase in red cell mass at 75 mg/kg/day, po QD for 4 days; format: organism-based, Canis lupus familiaris; settings: in vivo, 96 h, time 4 day
[21] = molecular target: Sodium-dependent noradrenaline transporter (Homo sapiens) (UniProt P23975); settings: dose <= 10000.0 nM
Description: Inhibition of NET (unknown origin) upto 10000 nM

[22] = Toxicity in Wistar Han rat assessed as tolerance at 30 mg/kg/day, po administered QD for 7 days; format: organism-based; settings: in vivo, 168 h, time 7 day
Mus musculus [23] = organism: Mus musculus; test: animal or person; settings: C57BL/6J, Mast cell, po, 1.117 h
[24] = molecular target: D(2) dopamine receptor (Homo sapiens) (UniProt P14416); settings: dose <= 10000.0 nM
Description: Inhibition of dopamine D2 receptor (unknown origin) upto 10000 nM

Mus musculus [25] = test: Anti-inflammatory activity against mdx mouse assessed as inhibition of muscle function loss by measuring functional recovery of injured limb muscles at 0.1 to 10 mg/kg, po administered 10 mins prior to unilateral eccentric contraction and QD for 43 days thereafter; parameters: scale not given: the % may be the effect or the level left; settings: dose 0.1-10 mg/kg, time 43 day
[26] = molecular target: 5-hydroxytryptamine receptor 2A (Homo sapiens) (UniProt P28223); settings: dose <= 10000.0 nM
Description: Inhibition of 5-HT2A receptor (unknown origin) upto 10000 nM

[27] = Toxicity in Wistar Han rat assessed as morphological changes in adrenal gland at 30 mg/kg/day, po administered QD for 7 days by microscopic analysis; format: organism-based; settings: in vivo, 168 h, time 7 day
[28] = AUC (0 to last) in mdx mouse administered orally 10 mins prior to unilateral eccentric contraction and QD for 43 days thereafter; format: ADME; parameters: time 43 day, route po; settings: in vivo, po
[29] = molecular target: Acetylcholinesterase (Homo sapiens) (UniProt P22303); settings: dose <= 10000.0 nM
Description: Inhibition of AChE (unknown origin) upto 10000 nM

[30] = Oral bioavailability in mouse at 3 mg/kg; format: ADME, organism-based; settings: in vivo
[31] = Toxicity in Wistar Han rat assessed as seizure-like activity at 10 to 100 mg/kg/day, po QD for 7 days; format: organism-based; settings: in vivo, 168 h, dose 10-100 mg/kg/day, time 7 day
[32] = molecular target: cGMP-inhibited 3',5'-cyclic phosphodiesterase 3A (Homo sapiens) (UniProt Q14432); settings: dose <= 10000.0 nM
Description: Inhibition of PDE3A (unknown origin) upto 10000 nM

[33] = Cmax in Wistar Han rat at 10 mg/kg/day, po QD for 7 days; format: ADME, organism-based; parameters: time 7 day, dose 10 mg/kg/day, route po; settings: in vivo
[34] = molecular target: Voltage-dependent L-type calcium channel subunit alpha-1C (Homo sapiens, UniProt Q13936); test: Inhibition of Cav1.2 channel (unknown origin) upto 10000 nM; settings: 10 µM
[35] = Toxicity in dog assessed as cytoplasmic alteration in zona fasciculata in adrenal gland at 75 mg/kg/day, po QD for 4 days by microscopic analysis; format: organism-based, Canis lupus familiaris; settings: in vivo, 96 h, time 4 day
[36] = molecular target: 5-hydroxytryptamine receptor 3A (Homo sapiens) (UniProt P46098); settings: dose <= 10000.0 nM
Description: Inhibition of 5-HT3 receptor (unknown origin) upto 10000 nM

[37] = Volume of distribution at steady state in dog at 0.5 mg/kg, iv; format: ADME, organism-based, Canis lupus familiaris; settings: in vivo, read-out: Vdss
[38] = Toxicity in Wistar Han rat assessed as morphological changes in thymus at 30 mg/kg/day, po administered QD for 7 days by microscopic analysis; format: organism-based; settings: in vivo, 168 h, time 7 day
[39] = Toxicity in dog assessed as clinical pathological changes by measuring increase in cardiac troponin 1 level at 75 mg/kg/day, po QD for 4 days; format: organism-based, Canis lupus familiaris; settings: in vivo, 96 h, time 4 day
Bile salt export pump = Bile salt export pump (Homo sapiens, UniProt O95342); test: Inhibition of BSEP (unknown origin) upto 10000 nM; settings: 10 µM
[40] = Oral bioavailability in dog at 1 mg/kg; format: ADME, organism-based, Canis lupus familiaris; settings: in vivo
[41] = Toxicity in LPS-treated C57BL6/N mouse assessed as seizures administered orally with compound and 1 hr later treated with LPS and measured after 30 mins; settings: in vivo, po, 1.5 h

Acetylcholinesterase (Homo sapiens), sequence (P22303 whole entry): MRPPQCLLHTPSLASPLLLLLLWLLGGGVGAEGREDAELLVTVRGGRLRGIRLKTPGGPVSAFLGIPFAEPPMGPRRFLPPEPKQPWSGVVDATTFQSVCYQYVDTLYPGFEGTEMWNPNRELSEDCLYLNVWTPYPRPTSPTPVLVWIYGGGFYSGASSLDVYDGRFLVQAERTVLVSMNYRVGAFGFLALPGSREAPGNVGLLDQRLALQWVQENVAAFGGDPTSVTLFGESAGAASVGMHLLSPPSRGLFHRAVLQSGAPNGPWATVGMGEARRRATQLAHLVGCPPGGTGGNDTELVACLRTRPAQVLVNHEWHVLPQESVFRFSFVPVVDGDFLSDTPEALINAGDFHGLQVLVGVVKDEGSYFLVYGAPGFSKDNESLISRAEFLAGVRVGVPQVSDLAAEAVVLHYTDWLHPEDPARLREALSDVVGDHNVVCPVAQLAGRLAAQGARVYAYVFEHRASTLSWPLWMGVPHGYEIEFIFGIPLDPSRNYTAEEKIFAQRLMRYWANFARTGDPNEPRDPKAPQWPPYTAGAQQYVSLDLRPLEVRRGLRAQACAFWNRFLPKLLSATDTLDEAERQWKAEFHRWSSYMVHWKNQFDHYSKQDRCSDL
Substance-P receptor (Homo sapiens), sequence (P25103 whole entry): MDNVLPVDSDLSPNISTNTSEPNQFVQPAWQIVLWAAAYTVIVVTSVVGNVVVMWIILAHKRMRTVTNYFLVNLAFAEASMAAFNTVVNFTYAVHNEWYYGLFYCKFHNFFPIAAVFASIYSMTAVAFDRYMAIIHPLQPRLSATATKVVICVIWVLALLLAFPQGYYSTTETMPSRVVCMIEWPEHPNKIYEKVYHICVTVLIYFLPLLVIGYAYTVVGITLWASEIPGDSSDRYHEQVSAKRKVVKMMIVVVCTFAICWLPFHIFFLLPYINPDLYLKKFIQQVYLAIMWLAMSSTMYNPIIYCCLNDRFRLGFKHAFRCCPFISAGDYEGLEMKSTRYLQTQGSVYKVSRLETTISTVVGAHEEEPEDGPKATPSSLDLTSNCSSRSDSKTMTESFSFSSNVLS
Mas-related G-protein coupled receptor member X2 (Homo sapiens), sequence (Q96LB1 whole entry): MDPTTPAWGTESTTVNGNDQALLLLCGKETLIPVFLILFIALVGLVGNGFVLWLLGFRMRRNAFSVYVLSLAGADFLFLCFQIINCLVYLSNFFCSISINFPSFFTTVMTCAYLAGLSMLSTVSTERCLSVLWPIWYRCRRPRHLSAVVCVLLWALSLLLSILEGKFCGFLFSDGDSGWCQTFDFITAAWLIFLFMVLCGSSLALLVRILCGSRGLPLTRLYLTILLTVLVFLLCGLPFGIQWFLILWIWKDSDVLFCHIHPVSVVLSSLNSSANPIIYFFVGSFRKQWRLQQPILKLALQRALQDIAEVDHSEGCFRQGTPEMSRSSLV
D(2) dopamine receptor (Homo sapiens), sequence (P14416 whole entry): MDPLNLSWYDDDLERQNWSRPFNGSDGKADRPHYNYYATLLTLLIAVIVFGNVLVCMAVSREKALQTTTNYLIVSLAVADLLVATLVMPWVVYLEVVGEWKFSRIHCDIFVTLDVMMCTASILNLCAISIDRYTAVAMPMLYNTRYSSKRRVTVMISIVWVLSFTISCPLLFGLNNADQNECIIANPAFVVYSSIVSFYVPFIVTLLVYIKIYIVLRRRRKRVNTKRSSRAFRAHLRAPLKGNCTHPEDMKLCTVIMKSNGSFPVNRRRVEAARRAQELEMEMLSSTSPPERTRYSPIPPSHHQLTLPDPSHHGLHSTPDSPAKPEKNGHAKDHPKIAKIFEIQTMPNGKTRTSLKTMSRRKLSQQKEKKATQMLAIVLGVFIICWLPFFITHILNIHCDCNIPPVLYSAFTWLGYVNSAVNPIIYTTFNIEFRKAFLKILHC
5-hydroxytryptamine receptor 2C (Homo sapiens), sequence (P28335 whole entry): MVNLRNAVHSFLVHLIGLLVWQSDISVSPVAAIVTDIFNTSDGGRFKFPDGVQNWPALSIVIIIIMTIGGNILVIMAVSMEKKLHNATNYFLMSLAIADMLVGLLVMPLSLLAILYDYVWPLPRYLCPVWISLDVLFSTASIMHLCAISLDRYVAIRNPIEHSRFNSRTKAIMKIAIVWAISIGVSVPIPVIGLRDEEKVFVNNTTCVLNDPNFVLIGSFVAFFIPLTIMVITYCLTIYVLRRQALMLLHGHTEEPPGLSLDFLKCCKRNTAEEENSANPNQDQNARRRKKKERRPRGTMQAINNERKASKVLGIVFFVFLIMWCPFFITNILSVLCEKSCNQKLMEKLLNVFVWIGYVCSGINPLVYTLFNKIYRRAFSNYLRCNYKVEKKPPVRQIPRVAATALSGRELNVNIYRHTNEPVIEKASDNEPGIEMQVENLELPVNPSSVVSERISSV
Beta-2 adrenergic receptor (Homo sapiens), sequence (P07550 whole entry, looked up): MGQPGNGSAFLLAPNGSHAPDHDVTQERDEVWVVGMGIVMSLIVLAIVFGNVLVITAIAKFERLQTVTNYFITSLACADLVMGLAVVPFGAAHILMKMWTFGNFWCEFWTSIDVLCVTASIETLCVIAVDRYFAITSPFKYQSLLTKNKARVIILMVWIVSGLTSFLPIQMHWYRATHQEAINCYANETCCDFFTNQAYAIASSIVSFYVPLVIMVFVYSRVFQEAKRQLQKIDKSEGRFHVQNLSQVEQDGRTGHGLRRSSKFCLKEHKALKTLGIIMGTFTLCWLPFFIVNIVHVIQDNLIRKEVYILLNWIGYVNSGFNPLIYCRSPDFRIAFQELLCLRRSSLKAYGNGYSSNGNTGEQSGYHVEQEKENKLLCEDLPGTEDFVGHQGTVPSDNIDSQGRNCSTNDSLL
5-hydroxytryptamine receptor 2A (Homo sapiens), sequence (P28223 whole entry): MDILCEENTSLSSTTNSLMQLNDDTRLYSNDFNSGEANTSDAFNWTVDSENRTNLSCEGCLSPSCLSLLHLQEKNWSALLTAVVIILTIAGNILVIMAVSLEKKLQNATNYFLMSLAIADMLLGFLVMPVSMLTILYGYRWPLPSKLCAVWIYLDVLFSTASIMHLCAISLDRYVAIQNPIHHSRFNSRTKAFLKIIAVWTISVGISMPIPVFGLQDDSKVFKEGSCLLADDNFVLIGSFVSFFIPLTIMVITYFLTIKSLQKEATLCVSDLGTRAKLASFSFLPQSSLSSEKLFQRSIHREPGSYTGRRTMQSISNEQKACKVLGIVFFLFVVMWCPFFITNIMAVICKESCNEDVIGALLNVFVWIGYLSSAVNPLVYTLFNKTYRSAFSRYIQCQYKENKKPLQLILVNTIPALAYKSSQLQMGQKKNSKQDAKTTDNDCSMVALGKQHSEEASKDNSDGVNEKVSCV
Bile salt export pump, sequence (O95342 whole entry): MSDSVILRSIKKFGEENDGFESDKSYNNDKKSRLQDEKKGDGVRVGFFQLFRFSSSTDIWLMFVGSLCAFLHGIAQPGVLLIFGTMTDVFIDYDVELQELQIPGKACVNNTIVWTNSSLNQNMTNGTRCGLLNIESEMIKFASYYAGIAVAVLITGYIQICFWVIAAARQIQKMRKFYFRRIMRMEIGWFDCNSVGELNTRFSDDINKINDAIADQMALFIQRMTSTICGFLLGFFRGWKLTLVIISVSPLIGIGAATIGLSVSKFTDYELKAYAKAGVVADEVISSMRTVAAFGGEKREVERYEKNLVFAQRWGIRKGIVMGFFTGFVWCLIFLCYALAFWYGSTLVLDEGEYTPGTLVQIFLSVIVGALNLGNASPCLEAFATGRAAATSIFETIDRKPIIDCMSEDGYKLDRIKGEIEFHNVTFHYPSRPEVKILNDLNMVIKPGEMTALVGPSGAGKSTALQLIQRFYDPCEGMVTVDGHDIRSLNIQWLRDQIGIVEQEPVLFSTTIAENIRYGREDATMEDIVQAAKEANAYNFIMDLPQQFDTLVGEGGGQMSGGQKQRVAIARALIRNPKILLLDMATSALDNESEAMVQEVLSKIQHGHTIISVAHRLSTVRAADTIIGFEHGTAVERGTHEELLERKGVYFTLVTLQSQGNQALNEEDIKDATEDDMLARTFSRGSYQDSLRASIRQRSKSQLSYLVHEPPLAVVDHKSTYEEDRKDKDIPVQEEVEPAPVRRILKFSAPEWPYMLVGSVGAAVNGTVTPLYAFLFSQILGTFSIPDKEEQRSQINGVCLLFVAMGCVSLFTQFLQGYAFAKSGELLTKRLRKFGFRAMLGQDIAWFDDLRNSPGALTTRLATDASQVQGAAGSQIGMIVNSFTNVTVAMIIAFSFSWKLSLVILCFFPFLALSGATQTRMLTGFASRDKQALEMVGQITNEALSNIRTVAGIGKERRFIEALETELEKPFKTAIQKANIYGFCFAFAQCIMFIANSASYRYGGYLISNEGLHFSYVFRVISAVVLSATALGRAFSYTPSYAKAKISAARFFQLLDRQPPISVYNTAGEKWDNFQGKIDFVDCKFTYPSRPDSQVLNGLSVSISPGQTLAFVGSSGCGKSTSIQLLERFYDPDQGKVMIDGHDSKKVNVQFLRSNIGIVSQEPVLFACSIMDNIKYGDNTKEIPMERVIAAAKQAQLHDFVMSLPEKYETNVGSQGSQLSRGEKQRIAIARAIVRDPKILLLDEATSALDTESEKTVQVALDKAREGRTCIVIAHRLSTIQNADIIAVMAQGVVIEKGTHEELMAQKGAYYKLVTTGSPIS
Histamine H1 receptor (Homo sapiens), sequence (P35367 whole entry): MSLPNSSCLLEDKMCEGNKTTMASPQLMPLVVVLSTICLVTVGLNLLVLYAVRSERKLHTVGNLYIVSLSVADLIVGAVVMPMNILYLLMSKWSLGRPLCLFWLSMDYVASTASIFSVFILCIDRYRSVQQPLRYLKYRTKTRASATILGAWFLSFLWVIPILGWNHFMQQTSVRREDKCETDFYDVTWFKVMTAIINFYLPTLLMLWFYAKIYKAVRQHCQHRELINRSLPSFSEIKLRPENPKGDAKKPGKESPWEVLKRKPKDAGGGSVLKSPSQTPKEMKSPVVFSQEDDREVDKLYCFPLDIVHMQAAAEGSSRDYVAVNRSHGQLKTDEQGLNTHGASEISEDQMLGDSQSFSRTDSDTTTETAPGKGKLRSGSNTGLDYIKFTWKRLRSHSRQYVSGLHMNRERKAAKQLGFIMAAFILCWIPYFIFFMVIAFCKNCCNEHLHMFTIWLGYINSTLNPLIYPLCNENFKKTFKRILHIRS

Structure (SMILES): CC(C)(O)[C@H]1CC[C@H](NC(=O)c2cnc3nc(C4CC4)ccc3c2)CC1
- IC50 [1]: > 80000 nM
- EC50 (Mus musculus [2]): 2.6 nM
- fCmax [3]: 49 ng/mL
- Activity [4]: Toxic
- Cmax [5]: 1700 ng/mL
- inhibition [6]: inactive
- inhibition [7]: inactive
- inhibition [8]: inactive
- Activity [9]: Toxic
- half-life [10]: 5.1 h
- inhibition [11]: inactive
- Activity [12]: Toxic
- inhibition [13]: inactive
- Activity [14]: Toxic
- inhibition [15]: inactive
- Activity [16]: Toxic
- Kp [17]: 0.06
- inhibition [18]: inactive
- Kp at 1032 h [19]: 0.56
- Activity [20]: Toxic
- inhibition [21]: inactive
- Activity [22]: Non-Toxic
- ED50 (Mus musculus [23]): 9 µg/kg
- inhibition [24]: inactive
- Activity (Mus musculus [25]): 90%
- inhibition [26]: inactive
- Activity [27]: Non-Toxic
- AUC(0-t) at 1032 h [28]: 1100 ng·h/mL
- inhibition [29]: inactive
- bioavailability [30]: 71%
- Activity [31]: Non-Toxic
- inhibition [32]: inactive
- Cmax [33]: 8700 ng/mL
- inhibition (INH) [34]: Not Active
- Activity [35]: Toxic
- inhibition [36]: inactive
- Vd [37]: 1 L/kg
- Activity [38]: Non-Toxic
- Activity [39]: Toxic
- inhibition (INH) (Bile salt export pump): Not Active
- bioavailability [40]: 92%
- Activity [41]: Non-Toxic
